The values below come from patent publication US12162836B2, “N-acyl-{4-[(4-aryl-phenyl)sulfonylmethyl]piperidine} compounds and their therapeutic use” (Modern Biosciences Limited, priority 2019, dated 2024).

One series concerns human hepatocytes. The experiment in a line: Human Hepatocyte Stability. The following applies: for metabolic stability (in words): human hepatocytes. It counts as in vitro ADME. The procedure, abridged: (§1)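 Compounds at 1 μM final (0.1% DMSO, 0.9% acetonitrile) were incubated with pooled human hepatocytes at 37 °C in duplicate and sampled at 0–60 min. Samples were quenched in methanol with tolbutamide and analysed by LC-MS/MS. k came from the ln(concentration)–time slope, giving t1/2 and Clint normalised to hepatocyte concentration.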

Series [1] is described as follows: Aqueous solubility in FaSSIF. The series is classed as physicochemical. The following applies: for solubility at 16 h: kinetic from dmso stock.
The nature of series [2]: Human Hepatocyte Stability. It counts as in vitro ADME. The settings on record: pooled human hepatocytes, 1 μM, 60 minute incubation; for half-life at 1 μM: read-out: Human t1/2. The procedure, abridged: as §1
Another series addresses hERG (Homo sapiens (Human), UniProt Q12809). The experiment in a line: hERG Ion Channel binding assay (3H astemizole displacement). The following applies: human, membranes of HEK293 cells stably expressing hERG, pH 7.4, probe 3H astemizole (1.5 nM); 30 μM; displacement of 3H astemizole, hERG-HEK293 membranes. In a few lines:
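Membranes from stably transfected hERG-HEK293 cells incubated with 1.5 nM ³H-astemizole ± test compound in HEPES buffer pH 7.4 (0.1% BSA, 5 mM KCl, 130 mM NaCl) at 25° C for 60 min. Bound ligand measured by filtration and scintillation counting; reported as % displacement (0% none, 100% complete).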
For orientation: hERG is a cardiac potassium channel; its block is linked to QT prolongation.

Setting [3] is: pooled human hepatocytes, 1 μM, 60 minute incubation.
Setting [4] is: pH 6.5, 16 hours, room temperature.

In brackets after ≈: the same amount, converted by molar mass. Where only a bound is given, the exact number is not on record here.

Chain of hERG (Q12809 whole entry): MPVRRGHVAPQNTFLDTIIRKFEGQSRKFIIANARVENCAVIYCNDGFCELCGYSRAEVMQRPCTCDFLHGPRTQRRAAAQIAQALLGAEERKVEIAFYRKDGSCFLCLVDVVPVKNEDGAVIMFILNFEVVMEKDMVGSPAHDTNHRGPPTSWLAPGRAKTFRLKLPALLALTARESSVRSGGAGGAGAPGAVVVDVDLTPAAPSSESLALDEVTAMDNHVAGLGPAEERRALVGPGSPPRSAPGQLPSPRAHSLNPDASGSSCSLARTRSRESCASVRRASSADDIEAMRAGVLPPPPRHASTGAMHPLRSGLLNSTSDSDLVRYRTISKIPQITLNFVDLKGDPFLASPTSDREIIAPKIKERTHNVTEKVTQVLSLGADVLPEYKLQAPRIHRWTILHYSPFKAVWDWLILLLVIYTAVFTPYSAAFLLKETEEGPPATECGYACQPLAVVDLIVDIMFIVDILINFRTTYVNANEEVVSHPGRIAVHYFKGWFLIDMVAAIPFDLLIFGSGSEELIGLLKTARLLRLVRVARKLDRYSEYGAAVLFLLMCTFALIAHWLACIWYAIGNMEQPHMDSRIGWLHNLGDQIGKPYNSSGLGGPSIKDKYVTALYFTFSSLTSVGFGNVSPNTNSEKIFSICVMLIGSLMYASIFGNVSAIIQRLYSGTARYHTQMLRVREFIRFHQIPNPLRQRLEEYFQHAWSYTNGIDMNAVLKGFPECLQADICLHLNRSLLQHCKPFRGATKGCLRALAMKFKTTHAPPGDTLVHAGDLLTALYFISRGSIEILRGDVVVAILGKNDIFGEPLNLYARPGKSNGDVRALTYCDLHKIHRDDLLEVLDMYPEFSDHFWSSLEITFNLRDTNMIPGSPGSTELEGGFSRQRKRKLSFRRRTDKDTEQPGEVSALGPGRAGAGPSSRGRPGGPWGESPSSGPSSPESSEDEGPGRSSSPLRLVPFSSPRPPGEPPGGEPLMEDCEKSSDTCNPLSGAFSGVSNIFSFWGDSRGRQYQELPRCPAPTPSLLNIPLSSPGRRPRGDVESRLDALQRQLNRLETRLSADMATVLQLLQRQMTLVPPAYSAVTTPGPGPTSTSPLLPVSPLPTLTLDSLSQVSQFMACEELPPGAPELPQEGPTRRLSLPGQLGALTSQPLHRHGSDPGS

Turning to `CC1(O)CCC(NS(=O)(=O)c2ccc(-c3ccc(F)cc3F)cc2)CC1` (stereo not shown) [ABD899, reference compound], in the series on human hepatocytes (setting [3]), the “Human Clint” value was determined as 9 uL/min/million cells and the “Human t1/2” value stood at 2.48 h. Moreover, in series [1] (setting [4]), the Solubility (usually the concentration that dissolves in the medium under given conditions) is 0.06 ^(3) mg/mL. For the same molecule, the Solubility in series [1] (pH 6.8) was determined as 0.13 mg/mL (≈ 341 µM).

For `CC(=O)N1CCC(CS(=O)(=O)c2ccc(-c3ccc(F)cc3F)cc2)CC1` [NASMP-01, 1-(4-(((2′,4′-Difluoro-[1,1′-biphenyl]-4-yl)sulfonyl)methyl)piperidin-1-yl)ethan-1-one], in series [2], the hepatocyte CLint (as a rule, the capacity of the preparation to metabolise the compound, expressed as a volume cleared per time) at 1 μM is below 3 µL/min/1e6 cells and the half-life at 1 μM was above 7.67 h. In addition, the “metabolic stability (in words)” value with human hepatocytes was “exceptionally good stability”. Moreover, the concentration in solution in series [1] (setting [4]) (solubility at 16 h) came to 75 µg/mL (≈ 191 µM). Moreover, the inhibition – broadly, the percentage by which the read-out fell short of the control – at 60 min, 30 µM at hERG came to 14%.

`CC(=O)N1CCC(CS(=O)(=O)c2ccc(-c3ccc(C#N)cc3Cl)cc2)CC1` [NASMP-05, 4′-(((1-Acetylpiperidin-4-yl)methyl)sulfonyl)-2-chloro-[1,1′-biphenyl]-4-carbonitrile]: in the series on human hepatocytes, the “metabolic stability (in words)” value was “exceptionally good stability”. Further, in series [1], the “solubility (in words)” value is recorded as “particularly good solubility”. Further, the concentration in solution in series [1] (setting [4]) (solubility at 16 h) was 62 µg/mL (≈ 149 µM). The molecule also came in with an inhibition at 60 min, 30 µM at hERG of 23%.

In the case of `CC(=O)N1CCC(CS(=O)(=O)c2ccc(-c3ccc(Cl)cc3C#N)cc2)CC1` [NASMP-06, 4′-(((1-Acetylpiperidin-4-yl)methyl)sulfonyl)-4-chloro-[1,1′-biphenyl]-2-carbonitrile], the half-life at 1 μM in series [2] is above 1 h. Also, in the series with human hepatocytes, the “metabolic stability (in words)” value is given as “exceptionally good stability”. Besides, the “solubility (in words)” value in series [1] is on record as “particularly good solubility”. The concentration in solution in series [1] (setting [4]) (solubility at 16 h) was 83 µg/mL (≈ 199 µM). The same molecule came in with an inhibition at 60 min, 30 µM on hERG of 35%.

As for `CC(=O)N1CCC(CS(=O)(=O)c2ccc(-c3ccc(C(F)(F)F)cc3F)cc2)CC1` [NASMP-07, 1-(4-(((2′-Fluoro-4′-(trifluoromethyl)-[1,1′-biphenyl]-4-yl)sulfonyl)methyl)piperidin-1-yl)ethan-1-one], in series [2], the intrinsic metabolic clearance (hepatocyte CLint) at 1 μM was determined as 1.1 µL/min/1e6 cells and the half-life at 1 μM is above 1 h. In addition, the “solubility (in words)” value in series [1] is “particularly good solubility”. Moreover, in series [1] (setting [4]), the concentration in solution (solubility at 16 h) came to 89 µg/mL (≈ 201 µM). Moreover, the inhibition at 60 min, 30 µM at hERG worked out at 79%.

As to `CC(=O)N1CCC(CS(=O)(=O)c2ccc(-c3c(F)cccc3F)cc2)CC1` [NASMP-09, 1-(4-(((2′,6′-Difluoro-[1,1′-biphenyl]-4-yl)sulfonyl)methyl)piperidin-1-yl)ethan-1-one], in series [2], the hepatocyte CLint at 1 μM was below 3.4 µL/min/1e6 cells and the half-life at 1 μM was above 6.88 h. Further, the “metabolic stability (in words)” value in the series on human hepatocytes is given as “exceptionally good stability”. For the same molecule, in series [1] (setting [4]), the concentration in solution (solubility at 16 h) came to 28 µg/mL (≈ 71.2 µM). The molecule further registered an inhibition at 60 min, 30 µM on hERG of 7%.

As for `CC(=O)N1CCC(CS(=O)(=O)c2ccc(-c3ccc(F)cc3F)cc2C(F)(F)F)CC1` [NASMP-12, 1-(4-(((2′,4′-Difluoro-3-(trifluoromethyl)-[1,1′-biphenyl]-4-yl)sulfonyl)methyl)piperidin-1-yl)ethan-1-one], the “metabolic stability (in words)” value in the series with human hepatocytes is recorded as “exceptionally good stability”. In addition, the “solubility (in words)” value in series [1] is recorded as “particularly good solubility”. In addition, in series [1] (setting [4]), the solubility (usually the concentration that dissolves in the medium under given conditions) at 16 h is 68 µg/mL (≈ 147 µM). In addition, the inhibition at 60 min, 30 µM on hERG was 35%.

On to `CCC(=O)N1CCC(CS(=O)(=O)c2ccc(-c3ccc(F)cc3F)cc2)CC1` [NASMP-15, 1-(4-(((2′,4′-Difluoro-[1,1′-biphenyl]-4-yl)sulfonyl)methyl)piperidin-1-yl)propan-1-one], for which the half-life at 1 μM in series [2] was above 1 h. Besides, in the series with human hepatocytes, the “metabolic stability (in words)” value was “exceptionally good stability”. The “solubility (in words)” value in series [1] is “particularly good solubility”. This molecule also had a solubility at 16 h in series [1] (setting [4]) of 73 µg/mL (≈ 179 µM). At hERG, the inhibition at 60 min, 30 µM was 45%.
